Source: article PMC11859031, “Assessment of the In Vitro Biological Activities of Schiff Base-Synthesized Copper Oxide Nanoparticles as an Anti-Diabetic, Anti-Alzheimer, and Anti-Cancer Agent” (Pharmaceutics, 2025)
Values after ≈ are worked out from the molar mass of the structure shown.

Columns and labels:
MTT cytotoxicity, BJ-1 = details: human, BJ-1 normal fibroblast cells
[1] = tested on: normal human fibroblast (BJ-1) cell line; experiment: MTT cytotoxicity, BJ-1; details: Homo sapiens, Fibroblast, 48 h, read-out: Median Inhibitory Concentration (IC50) BJ-1
COX-2 = target: T1, COX-2 (Homo sapiens, UniProt P35354); experiment: COX-2 inhibition assay (Cayman kit); type: biochemical; details: mean ± SE, n = 3
T1 construct: purchased Cayman 560131
T1 sequence (P35354 18-604): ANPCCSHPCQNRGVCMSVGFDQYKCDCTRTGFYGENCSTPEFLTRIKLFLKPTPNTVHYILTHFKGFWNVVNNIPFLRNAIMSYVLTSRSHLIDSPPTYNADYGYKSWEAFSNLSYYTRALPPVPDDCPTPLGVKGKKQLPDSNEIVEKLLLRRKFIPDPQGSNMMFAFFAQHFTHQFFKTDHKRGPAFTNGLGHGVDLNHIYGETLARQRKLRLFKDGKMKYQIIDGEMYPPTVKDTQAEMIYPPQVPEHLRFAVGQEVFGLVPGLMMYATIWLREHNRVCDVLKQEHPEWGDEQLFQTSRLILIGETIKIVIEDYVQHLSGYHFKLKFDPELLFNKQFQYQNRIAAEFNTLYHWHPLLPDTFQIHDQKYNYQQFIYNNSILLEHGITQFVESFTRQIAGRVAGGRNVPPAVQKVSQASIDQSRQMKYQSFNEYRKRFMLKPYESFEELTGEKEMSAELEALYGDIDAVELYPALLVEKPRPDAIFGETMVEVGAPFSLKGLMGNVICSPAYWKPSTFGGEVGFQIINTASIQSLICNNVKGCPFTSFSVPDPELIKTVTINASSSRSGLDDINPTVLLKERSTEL

[2] = tested on: human lung cancer (A549) cell line; experiment: MTT cytotoxicity, A549
[3] = tested on: caspase-3 in HepG-2 cells; experiment: Caspase-3 ELISA in treated HepG-2 cells; type: cell-based, human; details: HepG-2 cells treated at the IC50 value, mean ± SE, n = 3
Procedure: (§1) Following the treatment of HepG-2, Caco-2, A549, and BJ-1 cells with the SB-CuO-NPs at their respective IC50 values, as illustrated in Figure 9 and detailed in Table 5, an assessment of the activities of the caspase-3 and Bcl-2 enzymes was conducted in the treated cells. […] This mechanism ultimately triggers apoptosis. Additionally, the increased activity of caspase-3 results in a decrease in the expression of cyclin D1 and CDK-2 mRNA, thereby promoting the arrest of the G1 phase of the cell cycle. Othman et al. further noted that the biosynthesized M-NPs facilitate apoptosis by inhibiting the expression of the PI3K/AKT and Ras/Raf/ERK protein signaling pathways.
(§2) Invitrogen Corporation, following the manufacturer's instructions.

Bcl-2 in A549 cells = experiment: Bcl-2 ELISA in treated A549 cells; type: cell-based, human; details: A549 cells treated at the IC50 value, mean ± SE, n = 3
Procedure: as §1, §2

Question: For `Cc1nn(-c2ccccc2)c(Cl)c1C=NN=C1C(=O)Nc2ccccc21` [SB], which viability at 48 h, 31.13 μg/mL (MTT cytotoxicity, BJ-1) is on record?
Answer: The viability at 48 h, 31.13 μg/mL was 90.9%.

Question: And the viability at 48 h, 62.5 μg/mL (MTT cytotoxicity, BJ-1)?
Answer: Its viability at 48 h, 62.5 μg/mL is 80.9%.

Question: What about the viability at 48 h, 125 μg/mL (MTT cytotoxicity, BJ-1) of the same molecule?
Answer: Its viability at 48 h, 125 μg/mL is 62.7%.

Question: What about the viability at 48 h, 250 μg/mL (MTT cytotoxicity, BJ-1) of the same molecule?
Answer: Its viability at 48 h, 250 μg/mL is 47.2%.

Question: What about the viability at 48 h, 500 μg/mL (MTT cytotoxicity, BJ-1) of the same molecule?
Answer: The viability at 48 h, 500 μg/mL was 19.1%.

Question: What about the IC50 [1] of the same molecule?
Answer: The IC50 was 168 ± 2.22 µg/mL (≈ 461 µM).

Question: What about the inhibition at 100 µg/mL (COX-2; at 100 µg/mL, read-out: COX-2 Inhib. (%)) of the same molecule?
Answer: The inhibition at 100 µg/mL was 33.86 ± 0.18%.

Question: And the IC50 (COX-2)?
Answer: Its IC50 is 19.7 µM.

Question: What about the viability at 31.13 µg/mL ([2]; A549) of the same molecule?
Answer: Its viability at 31.13 µg/mL is 86.2%.

Question: And the viability at 62.5 µg/mL ([2]; A549)?
Answer: The viability at 62.5 µg/mL was 70.3%.

Question: What about the viability at 125 µg/mL ([2]; A549) of the same molecule?
Answer: Its viability at 125 µg/mL is 44.8%.

Question: And the viability at 250 µg/mL ([2]; A549)?
Answer: The viability at 250 µg/mL was 38.5%.

Question: What about the viability at 500 µg/mL ([2]; A549) of the same molecule?
Answer: The viability at 500 µg/mL was 18.8%.

Question: What about the IC50 ([2]; A549, 48 h, read-out: Median Inhibitory Concentration (IC50) A549) of the same molecule?
Answer: Its IC50 is 110 ± 2.49 µg/mL (≈ 303 µM).

Question: What about the Caspase-3 [3] of the same molecule?
Answer: The Caspase-3 was 165.55 ± 1.29 pg/mL.

Question: And the Bcl-2 (Bcl-2 in A549 cells)?
Answer: The Bcl-2 was 8.26 ± 0.03 ng/mL.
